Reference: patent US12653899B2, “Multi-targeted, tunable, sustained delivery of payloads to charged avascular tissues” (Massachusetts Institute of Technology, priority 2019, dated 2026)

Tests used:
[1] = system: human ankle cartilage explants treated with IL-1β; assay: Cumulative sGAG loss and final sGAG content (DMMB) in IL-1β challenge, human ankle cartilage; assay type: cell-based; conditions: 100 pg/ml IL-1β; for cumulative sGAG loss compared to the untreated control: 10-day time point
Experimental: Preliminary dose response experiments were performed to test the effects of human IL-1β (PeproTech, Rocky Hill, NJ) on human ankle cartilage. Ankle cartilage explants from two different donors (equilibrated in culture medium post-harvest) were cultured in serum-free low glucose medium (same composition as equilibration medium) and treated with continuous IL-1β doses ranging from 10 pg/ml to 1 ng/ml for 8 days. The experiments also included groups of explants that were treated with 300 ng/ml free IGF-1 at each dose level of IL-1β. Based on the results of these experiments, 100 pg/ml IL-1β was chosen as the dose used for the fusion protein dose response experiments. In these experiments, ankle and knee cartilage explants (equilibrated in culture medium post-harvest) were treated continuously with IL-1β and received single doses of fusion proteins (ranging from 39.2 nM to 2 μM) at the start of the experiments. Media changes with IL-1β but without fusion proteins were performed once every 2 to 3 days. An untreated control group, a control with continuous IL-1β alone, and a control with IL-1β combined with continuous free IGF-1 (300 ng/ml or 39.2 nM) were included. Experiments were terminated at 7-day and 10-day timepoints, and the sGAG biosynthesis rate, metabolic rate, sGAG loss to culture medium and sGAG content of the explants were measured.
The metabolic rate of cartilage explants was measured using the Alamar Blue assay (ThermoFisher). Cartilage explants were incubated for 3 hours in a 1× solution of Alamar Blue dissolved in culture medium. At the end of the incubation period, the absorbance of the medium at 570 nm and 600 nm was measured using a microplate reader (Synergy H1 Hybrid Multi-Mode Microplate Reader, BioTek). These readings were used to calculate the percentage reduction of Alamar Blue, which is directly proportional to the explant metabolic rate. These values were first normalized by individual explant weights. Following this, the weight-normalized readings for the treatment groups were normalized by the weight-normalized mean value for the untreated controls. To measure the chondrocyte biosynthesis rate of sulfated glycosaminoglycans (sGAGs), cartilage explants were cultured in the presence of 10 μCi/mL 35S-sulfate radiolabel during the final two days of each experiment. […] To calculate the cumulative loss of GAGs from the explants, the amount of sGAG lost to the medium and that left behind in the explants at the end of the experiment were measured using the dimethylene blue (DMMB) dye binding assay (Farndale et al., Biochim Biophys Acta. 883(2):173-177 (1986)).

[2] = system: human ankle cartilage explants; assay: Quantitative uptake of fusion proteins in human ankle cartilage (uptake ratio); assay type: in vitro ADME; conditions: 1 μM in PBS + 1% BSA
Experimental: Cartilage explants were incubated in 250 μL of 1 μM solutions of different fusion proteins dissolved in 1×PBS+1% BSA for either 36 hours (FIG. 4A) or for 108 hours (FIG. 4B) (4.5 days). A group with free +9 GFP dissolved in 1×PBS+1% BSA (1 μM concentration) was included as a control for each of these two time points. An additional untreated control was included in these experiments. Cartilage explants were incubated in plain 1×PBS+1% BSA to account for and to correct for any autofluorescence effects. At the end of the incubation in the 1×PBS+1% BSA: The explants were transferred to a 10×PBS+1% BSA bath for 48 hours. The purpose of this was to desorb the GFPs taken up by the explants. The amount of GFPs left behind in the […] bath was quantified through fluorescence measurements. The desorption step in 10×PBS+1% BSA was followed by a second desorption step using fresh 10×PBS+1% BSA just to ensure any GFPs left in the explant after the 1st desorption come out. At the end of each desorption step, the fluorescence of the 10×PBS+1% BSA bath was measured. After the 2nd desorption step, the explants were digested in Proteinase K and their fluorescence was measured. The uptake ratio for the 36 hour and 108 hour experiments was calculated as (FIG. 4C): […]
Cartilage explants that had been equilibrated in culture medium post-harvest were transferred to sterile PBS and allowed to equilibrate for 1 hour before the start of the experiments. Sterile PBS solutions containing 1% bovine serum albumin (BSA) were prepared. Following this, 1 μM solutions of (+9GFP), (+9GFP)-(GGGGS)4-(IGF-1) (SEQ ID NO: 7), (+9GFP)-(EAAAK)3-(IGF-1) (SEQ ID NO: 8) and (+9GFP)-(GGGGS)3-(IGF-1) (SEQ ID NO: 9) were prepared. The BSA was included in the PBS to minimize loss of GFPs in the solution caused by non-specific binding to the plasticware. […] In contrast, use of polypropylene with 1% BSA enabled complete recovery of fluorescence.
At the end of the incubation period, cartilage explants were washed with PBS and transferred to a solution of 10×PBS+1% BSA for desorption. At the same time, the fluorescence of the absorption bath was measured using a plate reader (Synergy H1, Biotek Instruments Inc.) (excitation: 485 nm, emission: 528 nm). […] At the end of the desorption in 10×PBS+1% BSA, cartilage explants were weighed, and the fluorescence of the desorption bath was measured. This fluorescence measurement was used with a standard curve and the explant wet weights to calculate the concentration of GFP inside cartilage explants (mol/mg wet weight). The uptake ratio was calculated as the ratio of GFP concentration inside cartilage (mol/mg wet weight) to the final absorption bath concentration (mol/mL).

With “(+9GFP)-(EAAAK)3-(IGF-1): fusion protein of +9 GFP and human IGF-1 with rigid (EAAAK)3 linker, SEQ ID NO: 8” the “cumulative sGAG loss compared to the untreated control” value ([1]; single 2 μM dose) was “higher cumulative sGAG loss”.
In the case of “IGF-1: free recombinant human IGF-1 (PeproTech), pro-anabolic growth factor used as the positive control”, the “cumulative sGAG loss to the medium compared to the untreated control” value ([1]; 7-day time point (FIG. 15C)) is reported as “higher cumulative sGAG loss”.
“(+9GFP)-(GGGGS)4-(IGF-1): fusion protein of +9 GFP and human IGF-1 with flexible (GGGGS)4 linker, SEQ ID NO: 7” was tested, and the “cumulative sGAG loss compared to the untreated control” value ([1]; single 500 nM dose) was “higher cumulative sGAG loss”, the “Uptake ratio (Mean)” value ([2]; 36 hr) was 12.7 and the “Uptake ratio (Mean)” value ([2]; 108 hr) was 18.3.
